Series [1] has as its system T-47D human breast cancer cell line. Description: MTT cytostatic-cytotoxic activity, T-47D. The format is cell-based. The settings on record: 48 h treatment; for GI50 / IC50: Homo sapiens, T47D; for GI50: 48 h; for IC50: kills 50% of the cells.
Series [2] relates to MOLT-4 human acute T-leukemia cell line. In words: MTT cytostatic-cytotoxic activity, MOLT-4. The settings on record: MOLT-4, 48 h treatment; for GI50 / IC50: Homo sapiens; for IC50: kills 50% of the cells. The series is classed as cell-based.
In series [3] the test system is OVCAR-3 human ovarian cancer cell line. In words: MTT cytostatic-cytotoxic activity, OVCAR-3. The settings on record: OVCAR-3, 48 h treatment; for GI50 / IC50: Homo sapiens; for IC50: kills 50% of the cells. The format is cell-based. Here is the method:
(§1) SKOV-3 (SKOV-3) (ATCC HTB 77) and OVCAR-3 (ATCC® HTB-161™)
(§2) Human ovarian adenocarcinoma cells, which are grown easily in monolayer culture with epithelial-like morphology. SKOV-3 are resistant to tumor necrosis factor (TNF) and to other cytotoxic drugs such as cisplatin, and adriamycin, while OVCAR-3 are resistant to adriamycin, cisplatin and melphalan. These cell lines express androgens, estrogens and progesterone receptors. When SKOV-3 or OVCAR-3 cells are subcutaneously implanted in nude mice, SCID mice, a moderately differentiated tumor develops, and the resulting model resembles primary ovarian adenocarcinoma in humans.
(§3) All cancer cell lines are stored in a liquid nitrogen tank in 2.5 ml cryovials (Corning-Costar, Cambridge, Mass.). DMSO (dimethylsulfoxide) act as a cryoprotectant and is added to prevent the formation of ice crystals which may lyse the cells. The Cells were grown as monolayer cultures in T-75 flasks (Corning-Costar, Cambridge, Mass.) and maintained at 37° C. in 5% CO2 incubator & 100% relative humidity. The cultures medium used are McCoy's 5a Medium, supplemented with 10% fetal bovine serum (FBS, Gibco) and 1% antibiotics (100 IU/ml penicillin/100 µg/ml streptomycin), sterilized by filtration (Corning-Costar filter, diameter 0.2 μm, RPMI-1640 and 50% RPMI-1640 (Catalog No 30-2001) plus 50% Mammary Epithelial Growth Medium (MEGM), supplemented with 10% fetal bovine serum (FBS, Gibco) and 1% antibiotics (100 IU/ml penicillin/100 μg/ml streptomycin). The passage is performed every 3-4 to days as follows: Cells are washed with sterile PBS (Phosphate buffered saline): 8 g/l NaCl, 0,2 g/l KCl, 1,15 g/l Na2HPO4καl 0,2 g/l KH2PO4. pH:7,4), add 2-3 ml 0.05% trypsin (Gibco 1:250) and 0.02% EDTA to cover the monolayer and incubate the flask at 3TC for 5-10 minutes. Trypsin-EDTA, is used mainly to detach the cells from the flask and prepare a single cell suspension. Finally, the number of cells can be determined by direct counting using a Neubauer chamber and cell viability is determined by staining the cells with trypan blue.
(§4) In the experimental study the in vitro effect of the compound type (I) was evaluated against ovarian cancer cell lines UWB1.289, UWB1.289+BRCA1 Kai SKOV-3.The cells were plated in 96-well plate (MTP) at a density of 1×10^4cells/m1 per well and maintained for 72 h at 3TC in a 5% CO2 incubator and grown as monolayers. The selection of the initial number of cells was made according to the rate of proliferation of the cell line, in order the cells throughout the experiment are in an exponential (log) growth phase. After 24 hours, cells were treated with 1-100 μmol/l of the tested compounds for 48 h. Experiments were carried out using triplicate wells. The viability of cultured cells was estimated by an (3-(4,5-imethylthiazol-2-yl)-2,5-diphenyltetrazolium bromide (MTT) metabolic assay as described previously (Finlay G J, Wilson W R and Baguley B C: Comparison of in vitro activity of cytotoxic drugs towards human carcinoma and leukaemia cell lines. Eur J Cancer Clin Oncol 22: 655-662, 1986; Alley M C, Scudiero D A, Monks A, Hursey M L, Czerwinski M J, Fine D L, et al. Feasibility of drug screening with panels of human tumor cell lines using a microculture tetrazolium assay. Cancer Res 1988; 48:589-601). MTT (Sigma, St Louis, Mo., USA) was dissolved in PBS in a concentration of 5 mg/ml, filter sterilized, and stored at 4° C. MTT (50 μl of stock solution) was added to each culture and incubated for 3 h at 3TC to allow metabolization. Formazan crystals were solubilized by DMSO (100 μl). Absorbance of the converted dye was measured at a wavelength of 540nm on ELISA reader (BioTek, Winooski, Vt., USA).
(§5) GI50: The mean concentration that causes 50% inhibition of cell growth (Growth Inhibition 50%). The calculation of the value is based on the formula: (Tt72x)−(Ct24)/(Ct72)-(Ct24)×100=50
(§6) TGI: The mean concentration that causes 100% inhibition of cell growth (Total Growth Inhibition). […]

Series [4] concerns UWB1.289 human ovarian cancer cell line (mutant BRCA1). In words: MTT cytostatic-cytotoxic activity, UWB1.289. The series is classed as cell-based. The settings on record: for GI50 / IC50: Homo sapiens; for GI50: UWB1289, 48 h; for GI50 / TGI: UWB1.289, 48 h treatment; for IC50: UWB1289, UWB1.289, 48 h treatment, kills 50% of the cells. Here is the method: Also, UWB1.289 cells have mutated the p53 tumor suppressor gene and positive Wilms' tumor protein (WT) expression, have no functional BRCA1 gene and are positive for the expression of cytokeratin 7 (CK-7), calretinin and Wilms' tumor protein (WT). Finally they are sensitive to ionizing radiation.
as §3, §4, §5
TGI: The mean concentration that causes 100% inhibition of cell growth (Total Growth Inhibition). The value is calculated according to the formula: (Tt72x)−(Ct24)/(Ct72)−(Ct24)×100=0
IC50: The mean concentration that kills 50% of the cells (Inhibition Concentration 50%). The value is calculated according to the formula: (Tt72x)−(Ct24)/(Ct24)×100=[…]

Another series is described as follows: in vivo. Particulars: both sexes, mouse, in vivo, ip; C57BI/6 mice, acute toxicity. Here is the method: (§7) The acute toxicity of the compounds was assessed from lethality by testing different concentrations, starting at 100mg/kg. […] For intraperitoneal (i.p.) treatment, stock solutions of the tested compounds were prepared immediately before use. They were suspended in corn oil in the desired concentration following initial dissolution in 10% dimethylsulfoxide (DMSO). C57BI/6 male and female were used for toxicity studies. Mice were kept under conditions of constant temperature and humidity in sterile cages with water and food.

In another series the test system is C57BI/6 mice. Description: in vivo. The settings on record: i.p., acute toxicity. The protocol:
as §7

Series [5] concerns SKOV-3 human ovarian cancer cell line. Description: MTT cytostatic-cytotoxic activity, SKOV-3. The settings on record: for GI50 / IC50: Homo sapiens, SK-OV-3, SKOV-3, 48 h treatment; for IC50: kills 50% of the cells; for TGI: SKOV-3, 48 h treatment. The format is cell-based. Here is the method: as §1, §2, §3, §4, §5, §6
Series [6] has as its system PC-3 human hormone-resistant prostate cancer cell line. Description: MTT cytostatic-cytotoxic activity, PC-3. The series is classed as cell-based. The settings on record: PC-3, 48 h treatment; for GI50 / IC50: Homo sapiens; for IC50: kills 50% of the cells.

As for `COc1cc(Cc2nnc3sc(/C=C/c4ccc(F)cc4)nn23)c(S(=O)(=O)N(C)C)cc1OC` [TS25, 3-[2-(N,N-dimethylsulfamoyl)-4,5-dimethoxybenzyl]-6-(E)-4-fluorostyryl-1,2,4-triazolo[3,4-b]-1,3,4-thiazole], the TGI in series [1] is 34 µM; in series [2] it was 29 µM; in series [3] it was 68 µM; in series [4], 4 µM; in series [5], 52 µM; in series [6] it was 24 µM. Also, the GI50 in series [1] was determined as 12 µM; in series [2] it was 16 µM; in series [3] it was 24 µM; in series [4], 2 µM; in series [5], 18 µM; in series [6], 8 µM. Besides, the IC50 came to 76 µM in series [1]; 78 µM in series [2]; 94 µM in series [3]; 60 µM in series [4]; 80 µM in series [5]; 69 µM in series [6]. Besides, in “in vivo”, the median lethal dose (LD50) is 345 mg/kg. This compound registered an LD10 in the series with C57BI/6 mice of more than 500 mg/kg.
For the compound `COc1cc(Cc2nnc3sc(/C=C/c4ccc(Cl)cc4)nn23)c(S(=O)(=O)N(C)C)cc1OC` [TS26, 3-[2-(N,N-dimethylsulfamoyl)-4,5-dimethoxybenzyl]-6-(E)-4-chlorostyryl-1,2,4-triazolo[3,4-b]-1,3,4-thiazole], the TGI was more than 100 µM in series [1]; 81 µM in series [2]; 87 µM in series [3]; 21 µM in series [4]; 72 µM in series [5]; 47 µM in series [6]. For the same compound, the GI50 in series [1] was 78 µM; in series [2], 32 µM; in series [3], 41 µM; in series [4], 8 µM; in series [5], 38 µM; in series [6], 19 µM. Also, the IC50 is more than 100 µM in series [1]; more than 100 µM in series [2]; more than 100 µM in series [3]; 72 µM in series [4]; more than 100 µM in series [5]; 86 µM in series [6]. In the series “in vivo”, this compound showed an LD50 of 365 mg/kg. The compound also returned an LD10 in the series with C57BI/6 mice of more than 500 mg/kg.
On to `COc1ccc(Cc2nn3c(Cc4cc(OC)c(OC)cc4S(=O)(=O)N(C)C)nnc3s2)cc1` [TS50, 3-[2-(N,N-dimethylsulfamoyl)-4,5-dimethoxybenzyl]-6-(4-methoxybenzyl)-1,2,4-triazolo[3,4-b]-1,3,4-thiazole], for which the TGI was more than 100 µM in series [1]; more than 100 µM in series [2]; 86 µM in series [3]; more than 100 µM in series [4]; more than 100 µM in series [5]; more than 100 µM in series [6]. Further, the GI50 in series [1] worked out at 28 µM; in series [2] it was 10 µM; in series [3] it was 5 µM; in series [4], 30 µM; in series [5], 6 µM; in series [6] it was 44 µM. In addition, the IC50 in series [1], in series [2], in series [3], in series [4], in series [5] and in series [6] was more than 100 µM throughout. Also, the LD50 in “in vivo” and in the series with C57BI/6 mice was more than 500 mg/kg throughout. Also, in the series on C57BI/6 mice, the LD10 is more than 500 mg/kg.
As for `COc1cc(Cc2nnc3sc(-c4ccccc4N)nn23)c(S(=O)(=O)N(C)C)cc1OC` [TS57, 3-[2-(N,N-dimethylosulfamoyl)-4,5-dimethoxybenzyl]-6-(2-aminophenyl)-1,2,4-triazolo[3,4-b]-1,3,4-thiazole], the TGI in series [1], in series [2], in series [3], in series [4], in series [5] and in series [6] was more than 100 µM each time. In addition, the GI50 in series [1] was more than 100 µM; in series [2], 94 µM; in series [3], 95 µM; in series [4], more than 100 µM; in series [5], more than 100 µM; in series [6], more than 100 µM. The IC50 in series [1], in series [2], in series [3], in series [4], in series [5] and in series [6] was more than 100 µM in each case. Further, the LD50 in the series “in vivo” and in the series on C57BI/6 mice was more than 500 mg/kg in each case. The LD10 in the series on C57BI/6 mice was more than 500 mg/kg.
On to `COc1cc(Cc2nnc3sc(Cc4ccccc4)nn23)c(S(=O)(=O)N(C)C)cc1OC` [TS62, 3-[2-(N,N-dimethylsulfamoyl)-4,5-dimethoxybenzyl]-6-benzyl-1,2,4-triazolo[3,4-b]-1,3,4-thiazole], for which the TGI is more than 100 µM in series [1]; 55 µM in series [2]; 68 µM in series [3]; more than 100 µM in series [4]; 56 µM in series [5]; more than 100 µM in series [6]. Moreover, the GI50 was 24 µM in series [1]; 7 µM in series [2]; 8 µM in series [3]; 13 µM in series [4]; 12 µM in series [5]; 27 µM in series [6]. The IC50 in series [1], in series [2], in series [3], in series [4], in series [5] and in series [6] was more than 100 µM throughout. In “in vivo”, this compound gave an LD50 of 480 mg/kg. The compound further showed an LD10 in the series on C57BI/6 mice of more than 500 mg/kg.

For orientation: TGI means the concentration at which net growth stops. By GI50 is commonly meant the concentration giving 50% growth inhibition. A higher GI50 goes with less potent growth inhibition. What is called IC50 is the midpoint of a concentration-inhibition curve. Low values mean greater potency in that assay, high ones weaker potency in that assay. One may read the LD50 as the dose expected to kill half of the subjects tested.
